A short description of series [1]: pH of pravastatin Na crystals exposed to pure carbon dioxide in different packagings. The series is classed as physicochemical. The note with it: unstabilized pravastatin Na, carbon dioxide atmosphere, 5% aqueous solution. The protocol:
Therefore the samples, in case of experiments where the correspondingly stabilised pravastatin was used, were exposed to the atmosphere of pure carbon dioxide, so the changes in pH become evident in a relatively short period of time such as a day or two.
The crystals were formed by addition of 400 ml of ethyl acetate containing 2% of water.

The nature of series [2]: pH of unstabilized pravastatin Na crystals exposed to air atmosphere in different packagings. The series is classed as physicochemical. The note with it: for pH: exposed to air, pH measured in 5% aqueous solution. Here is the method:
Crystals of pravastatin Na were prepared as follows: […] The resulting clear yellow solution was cooled to 8°C and allowed to stand overnight. Formed radiating clusters of thin, long needle-like crystals were filtered, washed with ethyl acetate (20 ml) and dried. […]

The procedure of series [3]:
In Fig. 1a, a HPLC chromatogram of a freshly perpared sample of pravastating Na is shown. The same pravastating Na was exposed to carbon dioxide atmosphere for one hour, and then a further HPLC chromatogram was prepared (Fig. 1b).

The structures appear in SMILES notation.

Consider `CC[C@H](C)C(=O)O[C@H]1C[C@H](O)C=C2C=C[C@H](C)[C@H](CC[C@@H](O)C[C@@H](O)CC(=O)[O-])[C@H]21.[Na+]` [2a, pravastatin Na], for which the pH in series [1] (time 0 h) is given as 7.60; in series [1] (time 1 h), 7.30; in series [1] (time 5 h), 7.14; in series [1] (time 70 h), 7.14.
On to `CC[C@H](C)C(=O)O[C@H]1C[C@H](O)C=C2C=C[C@H](C)[C@H](CC[C@@H](O)C[C@@H](O)CC(=O)[O-])[C@H]21.[Na+]` [1b, pravastatin Na], for which the pH was 8.3 in series [2] (time 0 hours) and 7.9 in series [2] (time 24 hours).
Regarding `CC[C@H](C)C(=O)O[C@H]1C[C@H](O)C=C2C=C[C@H](C)[C@H](CC[C@@H](O)C[C@@H](O)CC(=O)[O-])[C@H]21.[Na+]` [pravastatin Na], the pH of crystals was 7.6 in series [2] (after one day) and 8.3 in series [2] (freshly prepared crystals). In series [3], the “degradation products (HPLC peaks)” value was “two different peaks in front of and three peaks after the peak of pravastatin Na appear”.
For `CC[C@H](C)C(=O)O[C@H]1C[C@H](O)C=C2C=C[C@H](C)[C@H](CC[C@@H](O)C[C@@H](O)CC(=O)[O-])[C@H]21.[Na+]` [1a, pravastatin Na], the pH in series [2] (time 0 hours) stood at 8.3; in series [2] (time 24 hours), 7.6.

For the origin of these results see EP1296672B2, “STABLE PHARMACEUTICAL PRODUCT AND FORMULATION” (LEK Pharmaceuticals d.d., priority 2000, dated 2001).
